Data taken from PubChem BioAssay (NCI).
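Results reflect a 48-hour exposure of cells in 96-well plates to compound at five concentrations. TGI is the concentration that stops growth completely.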

Assays:
Assay in all cases: NCI tumour cell line growth inhibition, 48 h
HT29 colon = test system: HT29 colon
SK-OV-3 ovarian = test system: SK-OV-3 ovarian
A498 renal = test system: A498 renal
SN12C renal = test system: SN12C renal
UO-31 renal = test system: UO-31 renal
A549 NSCLC = test system: A549 NSCLC
RXF 393 renal = test system: RXF 393 renal
OVCAR-8 ovarian = test system: OVCAR-8 ovarian
NCI-H23 lung = test system: NCI-H23 lung
HS 578T breast = test system: HS 578T breast
MALME-3M melanoma = test system: MALME-3M melanoma
IGROV1 ovarian = test system: IGROV1 ovarian
MOLT-4 leukemia = test system: MOLT-4 leukemia
PC-3 prostate = test system: PC-3 prostate
CCRF-CEM leukemia = test system: CCRF-CEM leukemia
HCT-116 colon = test system: HCT-116 colon
MDA-N = test system: MDA-N
BT-549 breast = test system: BT-549 breast
SK-MEL-2 melanoma = test system: SK-MEL-2 melanoma
SW-620 colon = test system: SW-620 colon
HOP-62 NSCLC = test system: HOP-62 NSCLC
COLO 205 colon = test system: COLO 205 colon
OVCAR-4 ovarian = test system: OVCAR-4 ovarian
MDA-MB-231 breast = test system: MDA-MB-231 breast
DU-145 prostate = test system: DU-145 prostate
OVCAR-3 ovarian = test system: OVCAR-3 ovarian
TK-10 renal = test system: TK-10 renal
SF-268 CNS = test system: SF-268 CNS
K-562 leukemia = test system: K-562 leukemia
U251 CNS = test system: U251 CNS
786-0 renal = test system: 786-0 renal
NCI-H460 lung = test system: NCI-H460 lung
OVCAR-5 ovarian = test system: OVCAR-5 ovarian
SF-539 CNS = test system: SF-539 CNS
RPMI-8226 leukemia = test system: RPMI-8226 leukemia
CAKI-1 renal = test system: CAKI-1 renal
KM12 colon = test system: KM12 colon
SK-MEL-5 melanoma = test system: SK-MEL-5 melanoma
SF-295 CNS = test system: SF-295 CNS
UACC-257 melanoma = test system: UACC-257 melanoma
HL-60(TB) leukemia = test system: HL-60(TB) leukemia
HOP-92 NSCLC = test system: HOP-92 NSCLC
T-47D breast = test system: T-47D breast
LOX IMVI melanoma = test system: LOX IMVI melanoma
ACHN renal = test system: ACHN renal
NCI/ADR-RES ovarian = test system: NCI/ADR-RES ovarian
SNB-75 CNS = test system: SNB-75 CNS
NCI-H522 lung = test system: NCI-H522 lung
HCT-15 colon = test system: HCT-15 colon
UACC-62 melanoma = test system: UACC-62 melanoma
M14 melanoma = test system: M14 melanoma
MCF7 breast = test system: MCF7 breast
HCC-2998 colon = test system: HCC-2998 colon
SK-MEL-28 melanoma = test system: SK-MEL-28 melanoma
SNB-19 CNS = test system: SNB-19 CNS
MDA-MB-435 = test system: MDA-MB-435
EKVX NSCLC = test system: EKVX NSCLC
NCI-H226 lung = test system: NCI-H226 lung
SR leukemia = test system: SR leukemia

O=C1/C(=C\c2cccc(Oc3ccccc3)c2)SC(c2ccccc2)N1c1cc(Cl)ccc1Cl (stereo not drawn)
TGI (HT29 colon): > 100 µM
TGI (SK-OV-3 ovarian): > 100 µM
TGI (A498 renal): > 100 µM
TGI (SN12C renal): 48.9 µM
TGI (UO-31 renal): > 100 µM
TGI (A549 NSCLC): > 100 µM
TGI (RXF 393 renal): 76.5 µM
TGI (OVCAR-8 ovarian): 57 µM
TGI (NCI-H23 lung): > 100 µM
TGI (HS 578T breast): 75.9 µM
TGI (MALME-3M melanoma): 89.7 µM
TGI (IGROV1 ovarian): > 100 µM
TGI (MOLT-4 leukemia): > 100 µM
TGI (PC-3 prostate): > 100 µM
TGI (CCRF-CEM leukemia): 3.62 µM
TGI (HCT-116 colon): 52.7 µM
TGI (MDA-N): 45.5 µM
TGI (BT-549 breast): > 100 µM
TGI (SK-MEL-2 melanoma): > 100 µM
TGI (SW-620 colon): 41.6 µM
TGI (HOP-62 NSCLC): > 100 µM
TGI (COLO 205 colon): > 100 µM
TGI (OVCAR-4 ovarian): > 100 µM
TGI (MDA-MB-231 breast): > 100 µM
TGI (DU-145 prostate): > 100 µM
TGI (OVCAR-3 ovarian): 77.4 µM
TGI (TK-10 renal): > 100 µM
TGI (SF-268 CNS): 58.6 µM
TGI (K-562 leukemia): > 100 µM
TGI (U251 CNS): > 100 µM
TGI (786-0 renal): 76.5 µM
TGI (NCI-H460 lung): > 100 µM
TGI (OVCAR-5 ovarian): > 100 µM
TGI (SF-539 CNS): 88.5 µM
TGI (RPMI-8226 leukemia): 98.7 µM
TGI (CAKI-1 renal): > 100 µM
TGI (KM12 colon): > 100 µM
TGI (SK-MEL-5 melanoma): > 100 µM
TGI (SF-295 CNS): > 100 µM
TGI (UACC-257 melanoma): > 100 µM
TGI (HL-60(TB) leukemia): 48.1 µM
TGI (HOP-92 NSCLC): 74.4 µM
TGI (T-47D breast): > 100 µM
TGI (LOX IMVI melanoma): 38.2 µM
TGI (ACHN renal): > 100 µM
TGI (NCI/ADR-RES ovarian): > 100 µM
TGI (SNB-75 CNS): > 100 µM
TGI (NCI-H522 lung): 53 µM
TGI (HCT-15 colon): > 100 µM
TGI (UACC-62 melanoma): > 100 µM
TGI (M14 melanoma): 84.4 µM
TGI (MCF7 breast): > 100 µM
TGI (HCC-2998 colon): > 100 µM
TGI (SK-MEL-28 melanoma): > 100 µM
TGI (SNB-19 CNS): > 100 µM
TGI (MDA-MB-435): > 100 µM
TGI (EKVX NSCLC): > 100 µM

[N-]=[N+]=CC(=O)C1CCN(c2ccccc2)C1=O (stereo not drawn)
TGI (HT29 colon): > 10 µM
TGI (SK-OV-3 ovarian): > 10 µM
TGI (A498 renal): > 10 µM
TGI (NCI-H226 lung): > 10 µM
TGI (SN12C renal): > 10 µM
TGI (UO-31 renal): > 10 µM
TGI (A549 NSCLC): > 10 µM
TGI (RXF 393 renal): > 10 µM
TGI (OVCAR-8 ovarian): > 10 µM
TGI (NCI-H23 lung): > 10 µM
TGI (HS 578T breast): > 10 µM
TGI (MALME-3M melanoma): > 10 µM
TGI (IGROV1 ovarian): > 10 µM
TGI (MOLT-4 leukemia): > 10 µM
TGI (PC-3 prostate): > 10 µM
TGI (CCRF-CEM leukemia): > 10 µM
TGI (HCT-116 colon): > 10 µM
TGI (MDA-N): > 10 µM
TGI (BT-549 breast): > 10 µM
TGI (SK-MEL-2 melanoma): > 10 µM
TGI (SW-620 colon): > 10 µM
TGI (HOP-62 NSCLC): > 10 µM
TGI (COLO 205 colon): > 10 µM
TGI (OVCAR-4 ovarian): > 10 µM
TGI (MDA-MB-231 breast): > 10 µM
TGI (DU-145 prostate): > 10 µM
TGI (SR leukemia): > 10 µM
TGI (OVCAR-3 ovarian): > 10 µM
TGI (TK-10 renal): > 10 µM
TGI (SF-268 CNS): > 10 µM
TGI (K-562 leukemia): > 10 µM
TGI (U251 CNS): > 10 µM
TGI (786-0 renal): > 10 µM
TGI (NCI-H460 lung): > 10 µM
TGI (OVCAR-5 ovarian): > 10 µM
TGI (SF-539 CNS): > 10 µM
TGI (RPMI-8226 leukemia): > 10 µM
TGI (CAKI-1 renal): > 10 µM
TGI (KM12 colon): > 10 µM
TGI (SK-MEL-5 melanoma): > 10 µM
TGI (SF-295 CNS): > 10 µM
TGI (UACC-257 melanoma): > 10 µM
TGI (HL-60(TB) leukemia): > 10 µM
TGI (T-47D breast): > 10 µM
TGI (LOX IMVI melanoma): > 10 µM
TGI (ACHN renal): > 10 µM
TGI (NCI/ADR-RES ovarian): > 10 µM
TGI (HCT-15 colon): > 10 µM
TGI (UACC-62 melanoma): > 10 µM
TGI (M14 melanoma): > 10 µM
TGI (MCF7 breast): > 10 µM
TGI (HCC-2998 colon): > 10 µM
TGI (SK-MEL-28 melanoma): > 10 µM
TGI (SNB-19 CNS): > 10 µM
TGI (MDA-MB-435): > 10 µM
TGI (EKVX NSCLC): > 10 µM
